In the SangsterLogP compilation:

Assay: method code SF-AS, from DOI: 10.1016/s0045-6535(98)00132-5, PMID: 9753760

logP | SMILES
2.64 | Cc1c(Cl)cccc1NC(=O)c1cc([N+](=O)[O-])ccc1O
2.19 | COc1ccc(NC(=O)c2cc([N+](=O)[O-])ccc2O)cc1
2.32 | Cc1c(Cl)cccc1NC(=O)c1cccc([N+](=O)[O-])c1O
1.94 | Cc1ccc(NC(=O)c2cccc([N+](=O)[O-])c2O)cc1
1.98 | CCOc1ccc(NC(=O)c2cccc([N+](=O)[O-])c2O)cc1
2.04 | CCOc1ccccc1NC(=O)c1cccc([N+](=O)[O-])c1O
2.22 | Cc1ccc(NC(=O)c2cc([N+](=O)[O-])ccc2O)cc1
2.61 | Cc1ccc(Cl)cc1NC(=O)c1cc([N+](=O)[O-])ccc1O
2.54 | O=C(Nc1ccc(Cl)cc1)c1cc([N+](=O)[O-])ccc1O
2.24 | Cc1ccc(Cl)cc1NC(=O)c1cccc([N+](=O)[O-])c1O
2.34 | CCOc1ccccc1NC(=O)c1cc([N+](=O)[O-])ccc1O
2.16 | O=C(Nc1ccc(Cl)cc1)c1cccc([N+](=O)[O-])c1O
1.9 | Cc1ccccc1NC(=O)c1cccc([N+](=O)[O-])c1O
1.83 | COc1ccc(NC(=O)c2cccc([N+](=O)[O-])c2O)cc1
